Reference: PubChem BioAssay (NCI)
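These data come from cells grown in 96-well plates and exposed to compound for 48 hours at five concentrations. GI50 marks 50% less growth. Definition used: TGI = concentration required for complete inhibition of growth.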

Columns and labels:
Test in all cases: NCI-60 cell line screen, 48 h
NCI-H522 lung = test system: NCI-H522 lung
SF-295 CNS = test system: SF-295 CNS
SK-MEL-28 melanoma = test system: SK-MEL-28 melanoma
SK-MEL-5 melanoma = test system: SK-MEL-5 melanoma
COLO 205 colon = test system: COLO 205 colon
CAKI-1 renal = test system: CAKI-1 renal
U251 CNS = test system: U251 CNS
HCT-116 colon = test system: HCT-116 colon
SNB-19 CNS = test system: SNB-19 CNS
CCRF-CEM leukemia = test system: CCRF-CEM leukemia

Structure (SMILES)	GI50 (NCI-H522 lung) [µM]	TGI (NCI-H522 lung) [µM]	GI50 (SF-295 CNS) [µM]	TGI (SF-295 CNS) [µM]	GI50 (SK-MEL-28 melanoma) [µM]	TGI (SK-MEL-28 melanoma) [µM]	GI50 (SK-MEL-5 melanoma) [µM]	TGI (SK-MEL-5 melanoma) [µM]	GI50 (COLO 205 colon) [µM]	TGI (COLO 205 colon) [µM]	GI50 (CAKI-1 renal) [µM]	TGI (CAKI-1 renal) [µM]	GI50 (U251 CNS) [µM]	TGI (U251 CNS) [µM]	GI50 (HCT-116 colon) [µM]	TGI (HCT-116 colon) [µM]	GI50 (SNB-19 CNS) [µM]	TGI (SNB-19 CNS) [µM]	TGI (CCRF-CEM leukemia) [µM]
COc1ccccc1OCC(O)CO (stereo not drawn)	> 100	> 100	> 100	> 100	> 100	> 100	> 100	> 100	> 100	> 100	> 100	> 100	> 100	> 100	> 100	> 100	> 100	> 100	–
COc1ccc(-c2nc(N)nc(-c3cc(C)ccc3O)c2Cl)cc1	–	> 100	–	> 100	–	> 100	–	–	–	> 100	–	> 100	–	> 100	–	> 100	–	> 100	> 100
OCC(O)C(OC1OC(CO)C(O)C(O)C1O)c1nn(-c2ccc(F)cc2)c2nc3cc(Cl)c(Cl)cc3cc12 (stereo not drawn)	–	> 100	–	> 100	–	> 100	–	–	–	–	–	–	–	> 100	–	> 100	–	> 100	> 100
CC(=O)Nc1[nH]c(=O)[nH]c(=O)c1N(C(C)=O)C(C)=O	–	–	–	> 100	–	> 100	–	> 100	–	> 100	–	> 100	–	> 100	–	> 100	–	> 100	> 100
COCCn1cc(-c2csc(-c3c[nH]c4ccc(F)cc34)n2)c2cccnc21	2.19	> 100	3.2	> 100	7.73	> 100	2.69	> 100	2.69	> 100	9.54	> 100	5.14	> 100	3.77	> 100	98	> 100	–
CN(C)c1ccc(/C=N/Nc2ccc(-c3nc4ccccc4[nH]3)cc2)cc1	10.3	31.2	3.19	> 50	–	–	2.03	9.92	20.3	> 50	5	> 50	6.3	21.5	15.1	> 50	17.3	> 50	–
CC(C)S(=O)(=O)n1c(N)nc2ccc(/C(=N/O)c3ccccc3)cc21	–	35.2	–	> 100	–	> 100	–	–	–	33.5	–	76.9	–	> 100	–	40.2	–	> 100	57.2
COc1ccc2c(c1)[n+]([O-])c(-c1ccc(Cl)c(Cl)c1)c(N)[n+]2[O-]	–	27.6	–	> 100	–	> 100	–	31.5	–	33.6	–	> 100	–	> 100	–	> 100	–	> 100	–
CCn1c(-c2cc3ccccc3cc2OC(=O)c2ccccc2)n[nH]c1=S	11	45.4	27	> 50	> 50	> 50	19.8	> 50	> 50	> 50	24.7	> 50	> 50	> 50	43.1	> 50	> 50	> 50	–
